Test results: PubChem BioAssay (NCI)
Several values for one entry are separate records, joined by “and”; a condition that tells them apart may be missing. Equal values may be shown once.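 Where inhibition never reached the appropriate level, the endpoint shown equals the highest concentration tested. Otherwise, values were interpolated linearly from a five-concentration, 48-hour dose response in 96-well plates. GI50 marks 50% less growth. TGI denotes the concentration required for complete inhibition of growth.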 Where a SMILES comes first, the peptide text is derived from it. [ ]: non-standard residue; d: D form. 2Nal = N[CH](Cc1ccc2ccccc2c1)C(=O)O

How the values were obtained:
Assay in all cases: NCI tumour cell line growth inhibition, 48 h
DLD-1 colon = test system: DLD-1 colon
HOP-18 NSCLC = test system: HOP-18 NSCLC
KM20L2 colon = test system: KM20L2 colon
LXFL 529 NSCLC = test system: LXFL 529 NSCLC
M19-MEL melanoma = test system: M19-MEL melanoma
MDA-N = test system: MDA-N
RXF-631 renal = test system: RXF-631 renal
T-47D breast = test system: T-47D breast
BT-549 breast = test system: BT-549 breast
P388 leukemia = test system: P388 leukemia
P388/ADR leukemia = test system: P388/ADR leukemia
SN12K1 renal = test system: SN12K1 renal

Row | SMILES | TGI (DLD-1 colon) [µM] | TGI (HOP-18 NSCLC) [µM] | TGI (KM20L2 colon) [µM] | TGI (LXFL 529 NSCLC) [µM] | TGI (M19-MEL melanoma) | TGI (MDA-N) [µM] | TGI (RXF-631 renal) [µM] | TGI (T-47D breast) [µM] | GI50 (BT-549 breast) [µM] | TGI (BT-549 breast) [µM] | GI50 (HOP-18 NSCLC) [µM] | GI50 (M19-MEL melanoma) [µM] | GI50 (MDA-N) [µM] | GI50 (T-47D breast) [µM] | GI50 (DLD-1 colon) [µM] | GI50 (KM20L2 colon) [µM] | TGI (P388 leukemia) [µM] | TGI (P388/ADR leukemia) [µM] | TGI (SN12K1 renal) [µM]
1 | CC(C)C(NC(=O)C(CCCCN)NC(=O)C(Cc1c[nH]c2ccccc12)NC(=O)C(Cc1ccc(O)cc1)NC(=O)C(CS)NC(=O)C(N)Cc1ccc2ccccc2c1)C(=O)NC(CS)C(=O)NC(C(N)=O)C(C)O (stereo not drawn) (H-[2Nal]CYWKVCT-NH2; configuration not given here) | > 100 | > 100 | > 100 | > 100 | > 100 µM | > 12.5 | > 100 | > 12.5 |  |  |  |  |  |  |  |  |  |  | 
2 | C/C(CCn1[nH]c(=O)ccc1=O)=N\Nc1ccc([N+](=O)[O-])cc1[N+](=O)[O-] | > 100 | > 100 | > 100 | > 100 | > 100 µM |  | > 100 |  |  |  |  |  |  |  |  |  |  |  | 
3 | Cn1nc(-c2ccccc2)c(C(=O)/C=C/c2ccc(F)cc2)c(N2CCOCC2)c1=O | > 100 | 37.3 | 31.6 | 30.9 | 39 µM |  | 86.6 |  |  |  |  |  |  |  |  |  |  |  | 
4 | N#Cc1cc(NC(=O)c2ccccc2)c(=O)n2c1[nH]c1ccccc12 | > 100 | > 100 | > 100 | > 100 | > 100 µM |  | > 100 |  |  |  |  |  |  |  |  |  |  |  | 
5 | NC(=Nc1nc(-c2ccccn2)cc2ccccc12)c1ccccn1 | 0.378 | 27.1 | > 100 | > 100 | 0.953 µM | > 100 | 0.244 |  | 0.197 | > 100 | 0.258 | 0.199 | 0.445 | 0.00636 |  |  |  |  | 
6 | C=C1C(=O)OC2C1C(OC(=O)/C(C)=C\C)CC1(CO1)C1C(O)C=C(C)C21O (stereo not drawn) | 7.8 | 23.3 | 10.8 | 3.42 | 25.4 µM |  | 16.9 |  |  |  |  |  |  |  |  |  |  |  | 
7 | NNC(=O)N/N=C1\C(=O)N(c2nccs2)C(=O)C(=O)C1c1nc2ccccc2s1 (stereo not drawn) | > 100 | 88.5 | > 100 | > 100 | > 100 µM |  | > 100 |  |  |  |  |  |  |  |  |  |  |  | 
8 | COc1ccc(/C=C\c2cc(OC)c(OC)c(OC)c2)c(O)c1O | > 85.8 | 185 | 76.9 | 12.8 | 17.8 µM and 11.2 µM | < 0.0304 |  | > 79.7 |  | 32.3 | 109 | 1.42 |  |  | 1.52 | 26.6 | 4.57 | 23.4 | 1.08
9 | CN(C)CCNC(=O)c1cccc2ncc(-c3ccccc3)nc12 | 44.9 | > 64.3 | 38 | 53.7 | 29.5 µM |  | > 82.5 |  |  |  |  |  |  |  |  |  |  |  | 
10 | O=C1C(=O)N(c2cccc(C(F)(F)F)c2)C(=O)C(=O)C1c1nc2ccccc2s1 | > 100 | > 100 | > 100 | > 100 | > 100 µM | > 100 | > 100 | > 100 |  | > 100 |  |  |  |  |  |  |  |  | 
11 | CN(C)CCC1(C2=CCCC2)CC/C(=C\c2ccccc2Cl)C1=O (stereo not drawn) | 37.4 | 24.8 | 24.6 | 23.9 | 54.1 µM |  | 28.1 |  |  |  |  |  |  |  |  |  |  |  | 
12 | CCOC(=O)C1SC(=Nc2ccc(Cl)cc2C)N=C1C (stereo not drawn) | 35.9 | > 100 | 32.1 | 45.6 | 43.7 µM |  | 71.4 |  |  |  |  |  |  |  |  |  |  |  | 
